Values joined by “and” are separate entries in the source; they are usually repeats but may differ in a detail not shown here. Identical values can stand only once. Like-named read-outs stand apart in the source and are kept apart here.
Experiments:
[1] = Solubility of cruzain inhibitors in 10% DMSO, light scattering; format: physicochemical
Description: Synthetic PVHIs such as 5-16 and 22-24 at final concentrations of 1-200 μM were added to 0.25 mL solutions of 10% DMSO (v/v) in clear 96-well Greiner plates, and absorbance at 620 nm was measured using a BioTek M2 Synergy plate reader at t=0 and 120 min to evaluate increased light scattering and precipitated inhibitor.

[2] = target: cruzain (Trypanosoma cruzi, UniProt P25779); experiment: biochemical; conditions: for Ki: pH 7.5
How it was run: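 Fluorogenic assay at 25 °C following AMC release (ex 360/em 460 nm), with typically 0.2 nM cruzain and 10% DMSO, at pH 7.5 or 5.5 buffer with 5 mM DTT.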

[3] = Thiolation of inhibitors with glutathione, LCMS; format: physicochemical; conditions: 1 mM glutathione, 0.5 mM compound, Tris pH 8.0, 10% DMSO, room temperature
Description: Samples were analyzed by HPLC-MS (as described above) by injecting 0.01 mL aliquots onto a Luna […] C18(2) 100 Å, 4.6 mm, 50 mm column (Phenomenex) using the HPLC method described in the chemistry section at 0-6 h time points. […] Integration of the chromatographic peaks of the inhibitors and their GSH adducts at each time point was used to determine the rate of GSH adduct formation.

[4] = tested on: T. b. brucei procyclic forms; experiment: Growth of axenic cultures of T. b. brucei procyclic forms (PCFs); format: cell-based, Trypanosoma brucei brucei; conditions: axenic culture, read-out: EC50 T. b. brucei PCF
[5] = Host cell cytotoxicity in the T. cruzi infection model; format: cell-based, mouse; conditions: mouse; host cardiomyoblasts; read-out: C2C12 Cytotoxicity CC50
Description: The plates were incubated at 37° C. for 48 h, and the wells were fixed with 2% paraformaldehyde in PBS and stained with 5 μg mL-1 4,6-diamidino-2-phenylindole. After at least 30 min of incubation at room temperature in the dark, the plates were read in an automated microscope, ImageXpress Micro XL (Molecular Devices), and the images were analyzed by custom-built software to quantify and assess viability of the parasites, as well as the host cells independently. The compilation of data was used to calculate the antiparasitic activity (EC50) and host cytotoxicity (CC50).
T. cruzi infection was evaluated in C2C12 murine cardiomyoblast cells. […] The wells were fixed with 2% PFA in PBS, and stained by 5 μg/ml of DAPI. After >30 min of incubation in a dark environment, the plates were read on an ImageXpress MicroXL microscope (Molecular Devices). The images were analyzed to quantify parasites as well host cells.

[6] = target: human cathepsin L (Homo sapiens (Human), UniProt P07711); experiment: Human cathepsin L inhibition, Z-FR-AMC assay; format: biochemical; conditions: for Ki: pH 5.5, 25° C.
How it was run: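 Recombinant human enzymes were assayed at 25°C in sodium acetate pH 5.5 with 1 mM CHAPS, 1 mM EDTA, 5 mM DTT and 10% DMSO final, using the fluorogenic substrate Z-FR-AMC. AMC release (ex 360/em 460 nm) was followed over 30–60 min and converted to rates (μM/s) via an AMC standard curve.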

[7] = target: human cathepsin S (Homo sapiens (Human), UniProt P25774); experiment: Human cathepsin S inhibition; format: biochemical; conditions: pH 5.5, 25° C., 10% DMSO
Description: Cruzain inhibitors were added at seven concentrations and one fixed concentration of Cbz-Phe-Arg-AMC, and time courses of AMC formation were analyzed as with cruzain.

[8] = target: human cathepsin B (Homo sapiens (Human), UniProt P07858); experiment: Human cathepsin B inhibition, Z-FR-AMC assay; format: biochemical; conditions: pH 5.5, 25° C.
Description: Recombinant human cathepsins B and L were purchased from Millipore Sigma and used without further treatment. The solid proteins were dissolved into a solution of 50 mM sodium acetate (pH 5.5), 1 mM EDTA, 1 mM CHAPS, 10% (v/v) DMSO, and 5 mM DTT to final concentrations of […] in 20-mL aliquots, and stored at −80° C. until needed. These samples were then diluted into the same buffer to concentrations of −100 nM, and these dilutions were stored at 4° C. and used daily until depletion.
For assays of cathepsin L and B, inhibitors were evaluated in 0.25-mL reaction mixtures containing a buffer of sodium acetate (pH 5.5), 1 mM CHAPS, 1 mM Na2EDTA, and 5 mM DTT at 25° C. The fluorogenic substrate Cbz-Phe-Arg-7-amino-4-methyl-coumarin (Z-FR-AMC) was dissolved in 100% DMSO, as were all inhibitors, and aliquots of both substrates and inhibitors were added to reaction mixtures to final concentrations of DMSO of 10% (v/v). […] Formation of the fluorescent product AMC was monitored over 30-60-minute time courses for reaction mixtures in 96-well black microplates (Corning Costar®). Rates of peptidolysis of the dipeptide-AMC substrate(s) were measured on either a SpectraMax M5 (Molecular Devices) or a Synergy HTX (Biotek, Wisnooki, VT) microplate reader with λex=360 nm, λem=460 nm in ≥8-sec intervals. Control samples excluded substrate. The measured relative fluorescence units (RFUs) of generated AMC were converted to reaction rates of μM/s by use of a standard curve of known AMC concentrations obtained for both plate readers.

[9] = tested on: human dermal fibroblasts; experiment: Human cell toxicity, resazurin viability; format: cell-based; conditions: human dermal fibroblasts; read-out: Human Cell Cytotoxicity CC50
Description: Primary human dermal fibroblast (HDF) cells were used to evaluate human cell toxicity of cruzain inhibitors. HDF cells were plated in a 384-well plate at 2400 cells per well (62,000 cells mL^−1). Inhibitors in 100% DMSO were added in duplicate to final concentrations of 0.001-0.1 mM and 1% DMSO (v/v) with 1% DMSO as a control sample, and cells were cultured at 37° C. for 48 h, followed by the addition of resazurin. Cell viability was then assessed by reading of fluorescence (excitation/emission: 544 nm/590 nm) after an additional 24 h of incubation.

[10] = target: SARS-CoV-2 3CL protease (Severe acute respiratory syndrome coronavirus 2 (2019-nCoV) (SARS-CoV-2), UniProt P0DTD1); experiment: biochemical; format: biochemical; conditions: pH 7.5; read-out: Ki* 3CLpro
[11] = tested on: T. cruzi (Ca-I/72) in C2C12 murine cardiomyoblasts; experiment: T. cruzi-infected murine cardiomyoblasts (C2C12); format: cell-based, Trypanosoma cruzi; conditions: C2C12 murine cardiomyoblasts; read-out: EC50 T. cruzi-infected cardiomyoblasts
How it was run: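 Infected-host-cell imaging assay: inhibitor, 3-fold dilutions topping at 10 μM, was added to C2C12 murine cardiomyoblasts infected with 10^3 or 10^4 Ca-I/72 parasites for 2 days at 37° C. DAPI-stained fixed wells were imaged to count parasites and host cells separately, yielding antiparasitic EC50 and cytotoxic CC50.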

[12] = tested on: T. cruzi epimastigotes (strain Y); experiment: Growth of axenic cultures of T. cruzi epimastigotes; conditions: read-out: T. cruzi axenic culture EC50; epimastigotes
[13] = tested on: trypanosomes (T. b. brucei, T. cruzi); experiment: Anti-trypanosomal activity, culture not stated; format: cell-based; conditions: culture (T. b. brucei PCF/BSF or T. cruzi-infected cardiomyoblasts) not stated
[14] = tested on: SARS-CoV-2 in Vero E6 cells; experiment: Anti-CoV-2 activity in Vero E6 cells; format: cell-based
[15] = tested on: esterase from porcine liver; experiment: Hydrolysis of SMAI prodrugs by porcine esterase; format: in vitro ADME; conditions: for half-life of conversion to compound 36: porcine esterase, buffer pH 7.5, 37° C.
Description: Evaluation of SMAI Prodrugs. Esterase from porcine liver was obtained as an ammonium sulfate suspension (Sigma-Aldrich, E2884, 10 U/μL). Compounds 37-39 in 100% (v/v) DMSO solutions were diluted by 10-fold into cruzain assay buffer to make 1 mL-samples, each containing 2 mM compound. For the experimental sample, 4 μL of esterase suspension was added to the reaction mixtures (40 U/mL), which was immediately placed on a low-speed orbital shaker in a 37° C. incubator. In the meantime, a negative control (lacking esterase) and a blank control (buffer only) were included. Aliquots (140 μL) of the reaction mixtures were removed at 0, 15, 30, 60, 120, 180, and 300 min, and reactions were quenched by the addition of MeCN (260 μL). The resulting solution was vortexed, followed by centrifugation to precipitate the protein, and the resulting compounds in the supernatant were analyzed by HPLC-MS with detection at 270 nm.
Rates of de-acylation reactions of SMAI prodrugs 37-39 were obtained upon evaluation of the first-order loss of reagent as fitted to eq. 6, in which A0 and C are the initial and final fraction of unhydrolyzed compound, respectively, k is the pseudo-first order rate constant, from which the half-life was t1/2=ln 2/k.

[16] = tested on: SARS-CoV-2 in A549/ACE2 cells; format: cell-based; conditions: read-out: Anti-CoV-2 EC50 A549/ACE2 Cells
[17] = tested on: T. b. brucei bloodstream forms; experiment: Growth of axenic cultures of T. b. brucei bloodstream forms (BSFs); conditions: read-out: EC50 T. b. brucei BSF; axenic culture
Description: Selected cruzain inhibitors were evaluated in axenic cell cultures of T. b. brucei and T. cruzi. Procyclic trypomastigotes of T. b. brucei (ATCC PRA-381) were grown in the SDM-79 medium at 26° C., and bloodstream forms (ATCC PRA-383) were grown at 37° C. in the HMI-9 medium at 5% C02. […] Both forms of T. b. brucei and T. cruzi were grown in media containing 10% fetal bovine serum (FBS) and penicillin/streptomycin (50 U mL^−1). […] Control samples contained equal amounts of DMSO. T. b. brucei and T. cruzi (5 mL in flask cultures) were seeded at ˜3×10^6 cells and diluted daily, maintaining a mid-log growth phase for up to 120 h. […] After each cell dilution, fresh compound or an equal volume of DMSO (control samples) was supplemented into the cultures, while maintaining a constant concentration of each inhibitor. Cell counts were scored using a Z2 Coulter Counter.
In vitro Cell Assays. Bloodstream form T. b. brucei strain SM427 was grown in HM1-9 medium that included fetal bovine serum (10%) and antibiotics (100 U/mL penicillin-streptomycin, Gibco™). Inhibitors dissolved in 100% (v/v) DMSO stock solutions were added at final concentrations of 0.5-20 μM (final concentrations of DMSO were <1% (v/v)). T. b. brucei were seeded at ˜1×10^6 cells at 37° C., and diluted daily to maintain a log phase of growth for up to 96 h. […] After each dilution, the cell cultures were supplemented with inhibitor or DMSO (control) to keep concentrations constant. Cell density was determined and graphed as previously reported.^36 Trypanosomes were quantified using a Z2 Coulter Counter, and values of EC50 were determined after 3-4 days of treatment by the interpolation method of Huber and Koella.^37

[18] = apparent initial inhibition constant, 25° C., read-out: Ki
[19] = apparent tight-binding inhibition constant, 25° C., read-out: Ki*
[20] = obtained >10 minutes following initiation of reaction by addition of enzyme, read-out: Ki* Cruzain

Chain of cruzain (P25779 123-467 limits assumed): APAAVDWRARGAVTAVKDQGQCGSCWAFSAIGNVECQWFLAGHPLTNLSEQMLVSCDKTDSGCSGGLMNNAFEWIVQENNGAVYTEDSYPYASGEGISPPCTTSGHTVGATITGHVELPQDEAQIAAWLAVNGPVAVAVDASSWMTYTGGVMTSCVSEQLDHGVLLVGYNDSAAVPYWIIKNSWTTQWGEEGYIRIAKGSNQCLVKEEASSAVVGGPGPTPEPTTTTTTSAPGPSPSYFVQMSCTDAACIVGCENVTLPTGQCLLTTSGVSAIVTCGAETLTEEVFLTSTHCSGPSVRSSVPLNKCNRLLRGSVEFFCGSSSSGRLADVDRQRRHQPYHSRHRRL
Chain of human cathepsin L (P07711 114-333): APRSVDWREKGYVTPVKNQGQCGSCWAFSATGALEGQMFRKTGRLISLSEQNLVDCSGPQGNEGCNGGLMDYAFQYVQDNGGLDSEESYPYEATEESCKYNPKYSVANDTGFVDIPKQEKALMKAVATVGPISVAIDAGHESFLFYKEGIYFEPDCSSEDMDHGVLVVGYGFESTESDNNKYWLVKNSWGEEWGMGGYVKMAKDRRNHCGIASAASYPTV
Chain of human cathepsin S (P25774 115-331): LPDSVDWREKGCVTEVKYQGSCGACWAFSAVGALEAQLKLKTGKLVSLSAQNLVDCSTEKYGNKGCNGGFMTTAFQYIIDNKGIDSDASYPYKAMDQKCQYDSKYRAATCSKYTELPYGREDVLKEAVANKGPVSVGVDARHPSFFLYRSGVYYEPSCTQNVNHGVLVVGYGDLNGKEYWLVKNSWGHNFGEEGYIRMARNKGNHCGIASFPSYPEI

Structure (SMILES)	Ki [2, 19] [µM]	EC50 [11] [µM]	Ki [2, 20] [µM]	EC50 [14] [µM]	half-life of conversion to compound 36 [15] [min]	EC50 [16] [µM]	EC50 [17] [µM]	other results
O=C(N[C@@H](Cc1ccccc1)C(=O)N[C@H](/C=C/c1ccccc1)Cc1ccccc1)OCc1ccccc1 [Compound 5, Benzyl ((S)-1-(((S,E)-1,4-Diphenylbut-3-en-2-yl)amino)-1-oxo-3-phenylpropan-2-yl)carbamate]	0.87							aqueous solubility [1]: poor aqueous solubility; Ki [2, 18]: 1.8 ± 0.1 µM
O=C(N[C@@H](Cc1ccccc1)C(=O)N[C@H](/C=C/c1ccc([N+](=O)[O-])cc1)Cc1ccccc1)OCc1ccccc1 [Compound 6, Benzyl ((S)-1-(((S,E)-4-(4-Nitrophenyl)-1-phenylbut-3-en-2-yl)-amino)-1-oxo-3-phenylpropan-2-yl)carbamate]	0.37 ± 0.02							aqueous solubility [1]: poor aqueous solubility
O=C(N[C@@H](Cc1ccccc1)C(=O)N[C@H](/C=C/c1ncccn1)Cc1ccccc1)OCc1ccccc1 [Compound 7, Benzyl ((S)-1-Oxo-3-phenyl-1-(((S,E)-1-phenyl-4-(pyrimidin-2-yl)-but-3-en-2-yl)amino)propan-2-yl)carbamate]	0.38							Rate of Thiolation, k [3]: Negligible; EC50 ([4]; Trypanosoma brucei): 5 to 15 µM; CC50 at 48 h [5]: > 10 µM; Ki ([6]; 10% DMSO, read-out: Ki* Human Cathepsin L): 1.1 ± 0.1 µM; Ki [7]: 0.37 ± 0.02 µM; Ki ([8]; 10% DMSO, read-out: Ki* Human Cathepsin B): 32 ± 3 µM; Ki ([2]; Ki* Cruzain, obtained >10 minutes following initiation of reaction by addition of enzyme): 0.12 to 0.4 µM and 0.31 µM; Ki [2, 18]: 28 ± 1 µM; k4 ([2]; conversion of EI* back to EI, from kobs replot or recovery after preincubation and dilution): 0.0018 ± 0.0003 s⁻¹; CC50 [9]: > 100 µM
COC(=O)c1ccc2c(c1)CC(NC(=O)C(Cc1ccccc1)NC(=O)OCc1ccccc1)C(O)O2 (stereo not drawn) [Compound 35]		3.5 ± 0.3	0.018 ± 0.0005	2.5				Ki [10]: > 10 µM; EC50 [4]: 6.7 µM; EC50 [12]: 2 to 20 µM; EC50 [13]: 3.5 to 6.7 µM; inhibits cathepsin L more potently than cruzain [6]: 6 fold; Ki ([6]; read-out: Ki* hCatL): 0.0108 ± 0.0008 µM; Ki ([8]; read-out: Ki* hCatB): 0.67 ± 0.03 µM
CC(=O)OC1Oc2ccccc2C[C@@H]1NC(=O)[C@H](Cc1ccccc1)NC(=O)N1CCN(C)CC1 (stereo partly drawn) [Compound 37, (3S)-3-((S)-2-(4-methylpiperazine-1-carboxamido)-3-phenylpropanamido)chroman-2-yl acetate]	1	13 ± 2	~1	2.5	48	0.31	3.7	degradation in buffer without esterase ([15]; over 3 h, pH 7.5): about 10%
CCC(=O)OC1Oc2ccccc2C[C@@H]1NC(=O)[C@H](Cc1ccccc1)NC(=O)N1CCN(C)CC1 (stereo partly drawn) [Compound 38]			> 5	2.5	24	0.62	3.1 ± 0.2	
CC(C)C(=O)OC1Oc2ccccc2C[C@@H]1NC(=O)[C@H](Cc1ccccc1)NC(=O)N1CCN(C)CC1 (stereo partly drawn) [Compound 39]		14 ± 6	> 5	4	16	0.31	4 ± 0.2	
